# Source: patent US20260069563A1, “CETOLEIC ACID COMPOSITION” (Epax Norway AS, priority 2022, published 2026)
# System: human fibroblasts
# Experiment: Wound healing model (scratch wound) in human fibroblasts
# Type: cell-based
# Details: 14 hours after wounding; initial wound area defined as 100%; added to cell culture medium
# Text: Preliminary cell studies with human fibroblasts have been performed to test potential health benefits of LCMUFA in skin.
# The main objective of the study was to show whether addition of a LCMUFA concentrate (Cetoleic acid concentrate) or DHA to cell culture medium would: • 1) Influence the capacity of the cells to regenerate after damage (so called “wound healing model”), • 2) Influence the production of melanin (skin pigment), • 3) Influence the expression of genes involved in inflammation after induced oxidative stress.
# Wound healing model: Treatment arms included addition of DHA or the LCMUFA contrate to the cell culture medium, respectively. The control was cells only added culture medium, no fatty acids. The effect on closing of wound 14 hours after initiation of a wound was measured.
# The initial wound area was defined as 100%, then the wound opening was measured after 14 hours to a percentage of the original wound. The reduction was approximately 60% for LC-MUFA and 50% for DHA, respectively.
smiles,measurement,value
"CC/C=C\C/C=C\C/C=C\C/C=C\C/C=C\C/C=C\CCC(=O)O [DHA, Docosahexaenoic acid]",reduction of scratch wound area,~50%
